In ChEMBL document CHEMBL1641534, “Synthesis and antibacterial activity study of a novel class of cationic anthraquinone analogs” (Bioorg Med Chem, 2011) one finds MIC, solubility and Activity data, which are given here for 25 molecules.

In data set [1] the test system is Escherichia coli. Briefly: Antibacterial activity against Escherichia coli ATCC 25922 after 12 to 18 hrs by twofold dilution method. Format: functional.
The subject of data set [2] is Klebsiella pneumoniae. Briefly: Antibacterial activity against Klebsiella pneumoniae ATCC 13883 after 12 to 18 hrs by twofold dilution method. Format: functional.
Data set [3] relates to Staphylococcus aureus. Nature of the data set: microbe, parasite or virus in culture. Format: functional. The following applies: ATCC 25923.
Description: (§1) Antibacterial activity against Staphylococcus aureus ATCC 25923 after 12 to 18 hrs by twofold dilution method
Data set [4] has as its system Enterococcus faecalis. Nature of the data set: Antibacterial activity against vancomycin-resistant Enterococcus faecalis ATCC 51299 after 12 to 18 hrs by twofold dilution method. Format: functional.
In data set [5] the test system is Mycolicibacterium smegmatis. Nature of the data set: Antibacterial activity against Mycobacterium smegmatis ATCC 14468 after 12 to 18 hrs by twofold dilution method. Format: functional.
Data set [6] has as its system Staphylococcus aureus. Nature of the data set: microbe, parasite or virus in culture. Format: functional. The following applies: ATCC 33591.
Description: (§2) Antibacterial activity against methicillin-resistant Staphylococcus aureus ATCC 33591 after 12 to 18 hrs by twofold dilution method
Data set [7] relates to Pseudomonas aeruginosa. Nature of the data set: Antibacterial activity against Pseudomonas aeruginosa ATCC 27853 after 12 to 18 hrs by twofold dilution method. Format: functional.
In data set [8] the test system is Enterococcus faecalis. Nature of the data set: Antibacterial activity against Enterococcus faecalis ATCC 29212 after 12 to 18 hrs by twofold dilution method. Format: functional.
A short description of data set [9]: Solubility of the compound in aqueous medium. Format: physicochemical. The following applies: buffer.
In data set [10] the test system is Staphylococcus aureus. Nature of the data set: Antibacterial activity against Staphylococcus aureus ATCC 25923 by agar diffusion assay. Format: functional, organism-based. A general note: In agar diffusion tests the substance spreads into inoculated agar from a disc or well.
Data set [11] relates to Escherichia coli. Nature of the data set: Antibacterial activity against Escherichia coli ATCC 25922 by agar diffusion assay. Format: functional, organism-based.
The subject of data set [12] is Enterococcus faecalis. The following applies: ATCC 51299.
Data set [13] has as its system Enterococcus faecalis. The following applies: ATCC 29212.
The test system of data set [14] is Staphylococcus aureus. The following applies: ATCC 33591.
Description: as §2
The subject of data set [15] is Klebsiella pneumoniae. The following applies: ATCC 13883.
Data set [16] concerns Pseudomonas aeruginosa. The following applies: ATCC 27853.
In data set [17] the test system is Escherichia coli. The following applies: ATCC 25922.
The test system of data set [18] is Mycolicibacterium smegmatis. The following applies: ATCC 14468.
In data set [19] the test system is Staphylococcus aureus. The following applies: ATCC 25923.
Description: as §1

In brackets after ≈: the same amount, converted by molar mass. Activity calls are given as the source filed them. The rule behind the calls is not given here.

Turning to `NCC[C@H](O)C(=O)N[C@@H]1C[C@H](N)[C@@H](O[C@H]2O[C@H](CN)[C@@H](O)[C@H](O)[C@H]2O)[C@H](O)[C@H]1O[C@H]1O[C@H](CO)[C@@H](O)[C@H](N)[C@H]1O` [AMIKACIN], the MIC in data set [1] is 1 µg/mL (≈ 1.71 µM); in data set [2], 1 µg/mL (≈ 1.71 µM); in data set [3], 0.5 µg/mL (≈ 0.854 µM); in [4], no less than 250 µg/mL; in [5], 0.25 µg/mL (≈ 0.427 µM); in data set [6] it was 16 µg/mL (≈ 27.3 µM). Further, the MIC in data set [7] amounted to 0.25 µg/mL (≈ 0.427 µM); in [8], 32 µg/mL (≈ 54.6 µM).

`CCCCCn1n[n+](C)c2c1C(=O)c1ccccc1C2=O.[Cl-]`: the MIC came to 8 µg/mL in [1]; 32 µg/mL in data set [2]; 2 µg/mL in data set [3]; 125 µg/mL in [4]; 8 µg/mL in [5]; 1 µg/mL in data set [6]. For the same molecule, the MIC in [7] and in data set [8] was no less than 250 µg/mL in each case.

Consider `CCCCCn1nnc2c1C(=O)c1ccccc1C2=O`, for which the solubility result in data set [9] was “Insoluble”. Further, the result in data set [10] and in data set [11] was inactive.

In the case of `CCCCCCCCn1nnc2c1C(=O)c1ccccc1C2=O`, the solubility entry in data set [9] is listed as “Insoluble”. The result in data set [10] and in data set [11] was inactive.

Take `CCCCCCCCCCCCCCCC[N+](C)(C)Cc1ccccc1.[Cl-]` [CETALKONIUM CHLORIDE]: the MIC in data set [3] was 2 µg/mL; in data set [6], 1 µg/mL.

Consider `CCCCCCCCCCCCCCCCn1nnc2c1C(=O)c1ccccc1C2=O`, for which the solubility result in data set [9] is given as “Insoluble”. Also, the result in data set [10] and in [11] was inactive.

With `NC[C@@H]1O[C@H](O[C@H]2[C@@H](O)[C@H](O[C@@H]3[C@@H](O)[C@H](N)C[C@H](N)[C@H]3O[C@H]3O[C@H](CN)[C@@H](O)[C@H](O)[C@H]3N)O[C@@H]2CO)[C@H](N)[C@@H](O)[C@@H]1O` [FRAMYCETIN], the MIC in data set [1] was determined as 4 µg/mL (≈ 6.51 µM); in data set [2], 2 µg/mL (≈ 3.25 µM); in data set [3], 1 µg/mL (≈ 1.63 µM); in [4] it was 125 µg/mL (≈ 203 µM); in [6], 125 µg/mL (≈ 203 µM); in data set [7], 64 µg/mL (≈ 104 µM). In data set [8], this molecule came in with an MIC of 16 µg/mL (≈ 26 µM).

Regarding `C[n+]1nn(Cc2ccccc2)c2c1C(=O)c1ccccc1C2=O.[Cl-]`, the MIC is 8 µg/mL in data set [1]; 8 µg/mL in data set [2]; 2 µg/mL in data set [3]; no less than 250 µg/mL in data set [4]; 8 µg/mL in [5]; 0.5 µg/mL in [6]. The MIC in [7] is 125 µg/mL; in data set [8] it was no less than 250 µg/mL.

In the case of `C[n+]1nn(C2CCNCC2)c2c1C(=O)c1ccccc1C2=O.[Cl-]`, the MIC was 32 µg/mL in [1]; 64 µg/mL in [2]; 2 µg/mL in data set [3]; no less than 250 µg/mL in data set [4]; 16 µg/mL in [5]; 2 µg/mL in data set [6]. The MIC in data set [7] was 64 µg/mL; in data set [8], no less than 250 µg/mL.

Consider `CCCCCCCCCCCCn1nnc2c1C(=O)c1ccccc1C2=O`, for which, in [9], the solubility result is on record as “Insoluble”. The result in data set [10] and in [11] was inactive.

On to `CCCCn1nnc2c1C(=O)c1ccccc1C2=O`, for which the solubility entry in data set [9] is given as “Insoluble”. For the same molecule, the outcome in data set [10] and in data set [11] was inactive.

Turning to hexadecyltrimethylammonium bromide, the MIC stood at 4 µg/mL in data set [12]; 2 µg/mL in data set [13]; 2 µg/mL in data set [14]; 1 µg/mL in data set [15]; 16 µg/mL in data set [16]; 1 µg/mL in [17]. For the same molecule, the MIC in [18] worked out at 1 µg/mL; in data set [19], 0.5 µg/mL.

With `CC(C)(C)OC(=O)N1CCC(n2nnc3c2C(=O)c2ccccc2C3=O)CC1`, in [9], the solubility result is given as “Insoluble”. In addition, the outcome in data set [10] and in data set [11] was inactive.

As to `Cn1n[n+](C)c2c1C(=O)c1ccccc1C2=O.[Cl-]`, the MIC in [1] was determined as 32 µg/mL; in data set [2] it was 64 µg/mL; in data set [3], 4 µg/mL; in [4] it was 125 µg/mL; in data set [5], 32 µg/mL; in [6], 4 µg/mL. The MIC is 125 µg/mL in [7] and no less than 250 µg/mL in data set [8].

Regarding `CCCCCCCCCCCCn1n[n+](C)c2c1C(=O)c1ccccc1C2=O.[Cl-]`, the MIC in data set [1] is 2 µg/mL; in data set [2], 2 µg/mL; in data set [3] it was 0.032 µg/mL; in data set [4], 4 µg/mL; in [5], 1 µg/mL; in data set [6], 0.25 µg/mL. The MIC stood at 16 µg/mL in data set [7] and 4 µg/mL in [8].

For `O=C1c2ccccc2C(=O)c2c1nnn2Cc1ccccc1`, the solubility entry in [9] is “Insoluble”. Besides, the result in data set [10] and in data set [11] was inactive.

In the case of `CCn1n[n+](C)c2c1C(=O)c1ccccc1C2=O.[Cl-]`, the MIC is 16 µg/mL in data set [1]; 32 µg/mL in data set [2]; 1 µg/mL in data set [3]; no less than 250 µg/mL in data set [4]; 16 µg/mL in data set [5]; 1 µg/mL in [6]. Further, the MIC in data set [7] and in data set [8] was no less than 250 µg/mL each time.

Turning to `O=C1c2ccccc2C(=O)c2c1nnn2Cc1ccccn1`, the solubility entry in data set [9] is given as “Insoluble”. In addition, the outcome in [10] and in [11] was inactive.

`C[n+]1nn(Cc2ccccn2)c2c1C(=O)c1ccccc1C2=O.[Cl-]`: the MIC was 16 µg/mL in data set [1]; 16 µg/mL in data set [2]; 2 µg/mL in data set [3]; no less than 250 µg/mL in data set [4]; 16 µg/mL in [5]; 2 µg/mL in data set [6]. The MIC in data set [7] and in data set [8] was no less than 250 µg/mL each time.

Consider `CCn1nnc2c1C(=O)c1ccccc1C2=O`, for which the solubility result in [9] is on record as “Insoluble”. Moreover, the result in [10] and in [11] was inactive.

As to `Cn1nnc2c1C(=O)c1ccccc1C2=O`, the solubility entry in data set [9] is “Insoluble”. For the same molecule, the result in data set [10] and in [11] was inactive.

For the molecule `CCCCCCCCn1n[n+](C)c2c1C(=O)c1ccccc1C2=O.[Cl-]`, the MIC stood at 8 µg/mL in data set [1]; 8 µg/mL in [2]; 0.032 µg/mL in data set [3]; 125 µg/mL in data set [4]; 1 µg/mL in data set [5]; 0.5 µg/mL in data set [6]. For the same molecule, the MIC was no less than 250 µg/mL in [7] and 125 µg/mL in [8].

Regarding `CN[C@H](CC(C)C)C(=O)N[C@H]1C(=O)N[C@@H](CC(N)=O)C(=O)N[C@H]2C(=O)N[C@H]3C(=O)N[C@H](C(=O)N[C@H](C(=O)O)c4cc(O)cc(O)c4-c4cc3ccc4O)[C@H](O)c3ccc(c(Cl)c3)Oc3cc2cc(c3O[C@@H]2O[C@H](CO)[C@@H](O)[C@H](O)[C@H]2O[C@H]2C[C@](C)(N)[C@H](O)[C@H](C)O2)Oc2ccc(cc2Cl)[C@H]1O` [VANCOMYCIN], the MIC was no less than 250 µg/mL in data set [1]; no less than 250 µg/mL in [2]; 125 µg/mL (≈ 86.3 µM) in [4]; no less than 250 µg/mL in [7]; 1 µg/mL (≈ 0.69 µM) in data set [8].

Turning to `NC[C@H]1O[C@H](O[C@H]2[C@H](O)[C@@H](O[C@H]3O[C@H](CO)[C@@H](O)[C@H](N)[C@H]3O)[C@H](N)C[C@@H]2N)[C@H](O)[C@@H](O)[C@@H]1O` [KANAMYCIN], the MIC in data set [1] stood at 2 µg/mL (≈ 4.13 µM); in data set [2] it was 0.5 µg/mL (≈ 1.03 µM); in data set [3], 1 µg/mL (≈ 2.06 µM); in data set [5], 1 µg/mL (≈ 2.06 µM); in data set [6] it was 125 µg/mL (≈ 258 µM); in data set [7], 125 µg/mL (≈ 258 µM).

Take `CCCCn1n[n+](C)c2c1C(=O)c1ccccc1C2=O.[Cl-]`: the MIC in data set [1] was 16 µg/mL; in data set [2] it was 32 µg/mL; in data set [3], 2 µg/mL; in data set [4], no less than 250 µg/mL; in [5], 16 µg/mL; in data set [6] it was 1 µg/mL. For the same molecule, the MIC in data set [7] and in data set [8] was no less than 250 µg/mL in each case.
